According to PubChem BioAssay (NCI):
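Tested at 5 concentrations; 48 h exposure; 96-well plates; endpoints linearly interpolated, else capped at highest concentration. Here, GI50 denotes the concentration required for 50% inhibition of growth. TGI marks complete inhibition of growth.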

How the values were obtained:
Assay in all cases: DTP human tumour cell line panel, 48 h
UACC-257 melanoma = system: UACC-257 melanoma
NCI-H460 lung = system: NCI-H460 lung
RPMI-8226 leukemia = system: RPMI-8226 leukemia
HOP-62 NSCLC = system: HOP-62 NSCLC
IGROV1 ovarian = system: IGROV1 ovarian
SNB-19 CNS = system: SNB-19 CNS
OVCAR-8 ovarian = system: OVCAR-8 ovarian
SF-539 CNS = system: SF-539 CNS
HL-60(TB) leukemia = system: HL-60(TB) leukemia
UO-31 renal = system: UO-31 renal

SMILES | GI50 (UACC-257 melanoma) [µM] | TGI (UACC-257 melanoma) [µM] | GI50 (NCI-H460 lung) [µM] | TGI (NCI-H460 lung) [µM] | GI50 (RPMI-8226 leukemia) [µM] | TGI (RPMI-8226 leukemia) [µM] | GI50 (HOP-62 NSCLC) [µM] | TGI (HOP-62 NSCLC) [µM] | GI50 (IGROV1 ovarian) [µM] | TGI (IGROV1 ovarian) [µM] | GI50 (SNB-19 CNS) [µM] | TGI (SNB-19 CNS) [µM] | GI50 (OVCAR-8 ovarian) [µM] | TGI (OVCAR-8 ovarian) [µM] | GI50 (SF-539 CNS) [µM] | TGI (SF-539 CNS) [µM] | GI50 (HL-60(TB) leukemia) [µM] | TGI (HL-60(TB) leukemia) [µM] | GI50 (UO-31 renal) [µM] | TGI (UO-31 renal) [µM]
COc1cccc(CCC(=O)c2cc3c(N)c(C(=O)Nc4cccc(Cl)c4C)sc3nc2C)c1 | 4.25 | > 100 | 0.376 | > 75.2 | 0.819 | > 100 | 1.1 | > 100 | 0.628 | > 100 | 0.523 | > 100 | 1.44 | > 100 | 0.408 | 2.78 | 0.543 | > 100 | 0.86 | > 100
Clc1ccc(CNc2nccc(-c3cnn4ncccc34)n2)cc1 | 6.43 | 16.5 | 7.92 | > 25 | 5.8 | 20 | 7.59 | > 25 | 6.72 | > 23.3 | 9.73 | > 25 | 6.63 | > 25 | 6.25 | 15.6 | 8.69 | > 22.3 | 6.75 | > 19.5
CCOC(=O)C1=C(Nc2ccc(Br)cc2)OC/C1=N\NC(=O)c1ccccc1O |  | > 95.3 |  | > 100 |  | 49.4 |  | > 65.1 |  | > 100 |  | > 100 |  | > 100 |  | > 77.6 |  | 37.2 |  | > 50.9
CCC1(NC(=O)c2cc(F)c(F)c(F)c2F)C(=O)NC(=O)N(C(C)C)C1=O (stereo not given) | 32.1 | > 100 | 49.7 | > 100 | > 100 | > 100 | 58 | > 100 | 10.4 | 28.7 | 19.6 | 42.2 | 34.6 | > 100 | > 100 | > 100 | 3.82 | 24.9 | > 100 | > 100
CC(C)CC12CC3CCC(CNC1=O)C32C (stereo not given) |  | > 100 |  | > 100 |  | > 100 |  | > 100 |  | > 100 |  | > 100 |  | > 100 |  | > 100 |  | > 100 |  | > 100
Nc1ccc(C(OC(=O)c2cc3ccccc3c(Cc3c(O)c(C(=O)OC(c4ccc(N)cc4)(c4ccc(N)cc4)c4ccc(N)cc4)cc4ccccc34)c2O)(c2ccc(N)cc2)c2ccc(N)cc2)cc1 | 0.426 | 5.96 | 0.728 | 7.24 | 0.476 | > 100 | 0.331 | 14.1 | 9.89 | 85 | 0.444 | 20.7 | 0.388 | 36.6 | 0.362 | 14.2 | 4.04 | 23.3 | 3.66 | 63.4
OCC(CCc1c[nH]c2ccccc12)c1c[nH]c2ccccc12 (stereo not given) |  | 24.7 |  | 28 |  | 73.5 |  | 50.6 |  | 27.5 |  | 30.5 |  | 46.6 |  | 33.6 |  | 26.6 |  | 25.9
O=C(N/C(=C\c1ccc(/C=C(\NC(=O)c2ccccc2)c2nc3ccccc3s2)cc1)c1nc2ccccc2s1)c1ccccc1 |  | 17 |  | 14.6 |  | 37.3 |  | 32.3 |  | 18.6 |  | 14.5 |  | 5.51 |  | 4.61 |  | 5.71 |  | 10.7
